Assay results: ChEMBL document CHEMBL5291721, “A preclinical secondary pharmacology resource illuminates target-adverse drug reaction associations of marketed drugs” (Nat Commun, 2023)

Columns and labels:
Mu-type opioid receptor = Mu-type opioid receptor (Homo sapiens, UniProt P35372)
Glucocorticoid receptor = molecular target: T1, Glucocorticoid receptor (Homo sapiens, UniProt P04150)
T1 sequence (P04150 whole entry): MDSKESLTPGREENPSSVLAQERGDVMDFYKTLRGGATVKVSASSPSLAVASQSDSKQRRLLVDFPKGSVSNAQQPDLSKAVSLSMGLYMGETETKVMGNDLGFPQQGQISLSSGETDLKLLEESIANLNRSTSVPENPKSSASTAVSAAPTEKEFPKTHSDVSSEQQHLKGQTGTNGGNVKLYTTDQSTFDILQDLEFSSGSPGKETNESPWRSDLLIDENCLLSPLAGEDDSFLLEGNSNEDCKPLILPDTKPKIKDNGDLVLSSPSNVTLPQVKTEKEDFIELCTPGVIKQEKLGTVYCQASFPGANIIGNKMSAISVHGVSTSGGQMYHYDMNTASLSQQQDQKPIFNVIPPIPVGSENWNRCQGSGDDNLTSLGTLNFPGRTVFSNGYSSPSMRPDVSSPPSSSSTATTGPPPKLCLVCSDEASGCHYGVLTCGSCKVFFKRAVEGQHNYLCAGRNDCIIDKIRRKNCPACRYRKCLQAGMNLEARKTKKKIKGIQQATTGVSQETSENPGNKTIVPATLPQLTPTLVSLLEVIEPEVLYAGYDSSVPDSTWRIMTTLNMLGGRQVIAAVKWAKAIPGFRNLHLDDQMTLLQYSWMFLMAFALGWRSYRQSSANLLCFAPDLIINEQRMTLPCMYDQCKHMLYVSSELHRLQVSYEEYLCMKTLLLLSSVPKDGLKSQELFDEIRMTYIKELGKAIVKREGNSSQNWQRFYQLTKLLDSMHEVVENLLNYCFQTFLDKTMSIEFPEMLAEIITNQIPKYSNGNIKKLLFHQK

[1] = molecular target: T2, Alpha-1A adrenergic receptor (Homo sapiens, UniProt P35348); format: functional, cell-based
T2 sequence (P35348 whole entry): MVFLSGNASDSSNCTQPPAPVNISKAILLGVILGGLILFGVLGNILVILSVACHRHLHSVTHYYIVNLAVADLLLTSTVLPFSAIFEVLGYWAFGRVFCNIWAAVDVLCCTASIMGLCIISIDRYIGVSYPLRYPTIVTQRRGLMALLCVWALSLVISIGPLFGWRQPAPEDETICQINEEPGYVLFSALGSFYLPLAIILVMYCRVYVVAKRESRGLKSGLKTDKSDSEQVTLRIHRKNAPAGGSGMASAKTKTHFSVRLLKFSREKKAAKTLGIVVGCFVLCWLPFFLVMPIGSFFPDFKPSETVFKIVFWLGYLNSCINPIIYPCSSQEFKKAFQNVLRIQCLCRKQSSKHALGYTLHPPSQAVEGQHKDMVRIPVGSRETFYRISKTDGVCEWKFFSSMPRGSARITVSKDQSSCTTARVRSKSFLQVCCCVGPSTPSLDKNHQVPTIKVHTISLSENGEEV

[2] = molecular target: T2, Alpha-1A adrenergic receptor; format: functional, cell-based; remark: listed apart in the source
[3] = molecular target: T3, 5-hydroxytryptamine receptor 1A (Homo sapiens, UniProt P08908)
T3 sequence (P08908 whole entry): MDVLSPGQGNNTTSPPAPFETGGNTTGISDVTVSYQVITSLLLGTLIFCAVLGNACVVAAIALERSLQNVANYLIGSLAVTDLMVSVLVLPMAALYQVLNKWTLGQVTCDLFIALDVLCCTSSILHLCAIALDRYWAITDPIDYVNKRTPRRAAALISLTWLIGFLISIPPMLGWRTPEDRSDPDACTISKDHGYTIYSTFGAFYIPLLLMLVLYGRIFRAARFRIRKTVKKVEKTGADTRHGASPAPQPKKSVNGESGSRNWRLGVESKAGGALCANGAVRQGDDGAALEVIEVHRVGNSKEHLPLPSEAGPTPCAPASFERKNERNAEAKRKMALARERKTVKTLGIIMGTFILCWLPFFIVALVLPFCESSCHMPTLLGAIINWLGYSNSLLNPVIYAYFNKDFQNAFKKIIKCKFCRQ

Progesterone receptor [4] = molecular target: T4, Progesterone receptor (Homo sapiens, UniProt P06401); format: functional
T4 sequence (P06401 whole entry): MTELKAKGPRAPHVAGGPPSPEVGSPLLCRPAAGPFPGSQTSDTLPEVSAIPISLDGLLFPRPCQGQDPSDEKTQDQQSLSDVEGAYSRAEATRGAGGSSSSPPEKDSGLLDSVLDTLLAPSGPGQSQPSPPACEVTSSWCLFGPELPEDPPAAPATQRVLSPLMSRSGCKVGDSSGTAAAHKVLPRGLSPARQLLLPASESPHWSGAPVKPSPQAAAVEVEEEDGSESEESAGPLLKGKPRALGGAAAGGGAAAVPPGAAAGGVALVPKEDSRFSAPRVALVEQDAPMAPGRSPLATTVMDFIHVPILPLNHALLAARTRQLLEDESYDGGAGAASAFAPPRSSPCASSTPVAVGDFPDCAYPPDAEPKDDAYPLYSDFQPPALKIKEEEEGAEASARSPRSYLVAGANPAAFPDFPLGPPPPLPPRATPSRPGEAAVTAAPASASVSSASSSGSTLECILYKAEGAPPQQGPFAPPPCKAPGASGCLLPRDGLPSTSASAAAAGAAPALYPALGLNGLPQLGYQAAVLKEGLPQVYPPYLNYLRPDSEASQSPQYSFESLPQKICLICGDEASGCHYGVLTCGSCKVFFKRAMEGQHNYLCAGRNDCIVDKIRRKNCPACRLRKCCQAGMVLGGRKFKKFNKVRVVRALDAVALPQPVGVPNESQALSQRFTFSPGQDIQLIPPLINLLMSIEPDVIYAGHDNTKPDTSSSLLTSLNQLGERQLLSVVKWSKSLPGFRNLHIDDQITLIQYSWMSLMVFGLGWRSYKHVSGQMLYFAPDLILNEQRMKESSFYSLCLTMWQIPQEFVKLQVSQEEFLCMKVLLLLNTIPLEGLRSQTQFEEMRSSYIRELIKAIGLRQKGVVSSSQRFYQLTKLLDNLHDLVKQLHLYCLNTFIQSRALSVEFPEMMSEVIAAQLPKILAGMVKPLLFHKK

Progesterone receptor [5] = molecular target: T4, Progesterone receptor; format: functional; remark: listed apart in the source
Also: assay procedure not described here.

Mu-type opioid receptor, sequence (P35372 whole entry): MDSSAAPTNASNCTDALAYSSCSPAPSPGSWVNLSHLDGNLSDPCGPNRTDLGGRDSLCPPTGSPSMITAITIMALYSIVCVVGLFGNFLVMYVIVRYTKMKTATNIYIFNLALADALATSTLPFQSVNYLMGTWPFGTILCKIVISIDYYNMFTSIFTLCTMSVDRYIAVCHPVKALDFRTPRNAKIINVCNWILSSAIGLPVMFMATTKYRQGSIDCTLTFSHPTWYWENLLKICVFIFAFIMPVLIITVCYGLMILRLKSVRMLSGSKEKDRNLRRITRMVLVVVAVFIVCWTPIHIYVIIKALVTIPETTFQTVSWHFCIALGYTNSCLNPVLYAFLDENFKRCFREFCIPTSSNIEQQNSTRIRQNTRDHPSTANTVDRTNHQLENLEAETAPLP

Structure (SMILES) | AC50 (Mu-type opioid receptor) [µM] | AC50 (Glucocorticoid receptor) [µM] | AC50 (Progesterone receptor [4]) [µM] | AC50 (Progesterone receptor [5]) [µM] | AC50 [1] [µM] | AC50 [2] [µM] | AC50 [3] [µM]
Nc1nc(N)c2nc(-c3ccccc3)c(N)nc2n1 | 17 | > 30 | > 30 |  | > 30 | > 30 | > 30
Oc1ncnc2[nH]ncc12 [ALLOPURINOL] | > 30 | > 30 |  |  | > 30 | > 30 | > 30
CN(C)CCCN1c2ccccc2CCc2ccc(Cl)cc21 [CLOMIPRAMINE] | > 10 |  |  |  | 1.4 | > 30 | 5.33
CN(CCOc1ccc(NS(C)(=O)=O)cc1)CCc1ccc(NS(C)(=O)=O)cc1 [DOFETILIDE] | > 30 | > 30 |  |  | > 30 | > 30 | > 30
COC(=O)[C@@H]1CC2=CC(=O)CC[C@]2(C)[C@@]23O[C@@H]2C[C@@]2(C)[C@@H](CC[C@@]24CCC(=O)O4)[C@H]13 [EPLERENONE] | > 30 |  |  |  | > 30 | > 30 | 
C#C[C@]1(O)CC[C@H]2[C@@H]3CCc4cc(O)ccc4[C@H]3CC[C@@]21C [ETHINYL ESTRADIOL] | > 30 | 0.12 |  |  |  |  | > 30

More lines, main results first:

AC50 (Mu-type opioid receptor) [µM] | AC50 (Glucocorticoid receptor) [µM] | AC50 (Progesterone receptor [4]) [µM] | AC50 (Progesterone receptor [5]) [µM] | Structure (SMILES) | AC50 [1] [µM] | AC50 [2] [µM] | AC50 [3] [µM]
> 10 | > 30 |  |  | CCOC(=O)[C@H](CCc1ccccc1)N[C@@H](C)C(=O)N1CCC[C@H]1C(=O)O | > 30 | > 30 | 
> 30 |  | > 30 | > 3 | CC(=O)c1ccc2c(c1)N(CCCN1CCN(CCO)CC1)c1ccccc1S2 [ACETOPHENAZINE] | 0.0045 | > 30 | 
> 30 | > 30 | > 30 | > 30 | COC(=O)N[C@H](C(=O)N[C@@H](Cc1ccccc1)[C@@H](O)CN(Cc1ccc(-c2ccccn2)cc1)NC(=O)[C@@H](NC(=O)OC)C(C)(C)C)C(C)(C)C [ATAZANAVIR] |  |  | 
23 |  | > 30 | > 30 | CN1CCCC(n2nc(Cc3ccc(Cl)cc3)c3ccccc3c2=O)CC1 (configuration not stated) [AZELASTINE] | 1.1 | > 30 | 
> 10 | > 30 |  |  | CC(C)NCC(O)COc1ccc(COCCOC(C)C)cc1 (configuration not stated) [BISOPROLOL] |  |  | 
> 30 |  |  |  | CCC[C@@H]1C[C@@H](C(=O)N[C@@H]([C@H]2O[C@H](SC)[C@H](O)[C@@H](O)[C@H]2O)[C@H](C)Cl)N(C)C1 [CLINDAMYCIN] | > 30 | > 30 | 
> 30 | > 10 | > 10 | > 10 | O=C(O)c1cc(-c2ccc(F)cc2F)ccc1O [DIFLUNISAL] |  |  | 
> 30 |  |  |  | COc1cc2c(cc1OC)C(=O)C(CC1CCN(Cc3ccccc3)CC1)C2 (configuration not stated) [DONEPEZIL] |  |  | 
> 10 | > 30 |  |  | NC(N)=Nc1nc(CSCCC(N)=NS(N)(=O)=O)cs1 [FAMOTIDINE] | > 30 | > 30 | 
> 30 | > 30 | > 30 | > 30 | C[C@@H]1O[C@@H]1P(=O)(O)O [FOSFOMYCIN] |  |  | 
